In paper PMC11547813, “The Antifungal Effects of Berberine and Its Proposed Mechanism of Action Through CYP51 Inhibition, as Predicted by Molecular Docking and Binding Analysis” (Molecules, 2024):

Target: T1, CYP51Ca (recombinant protein CYP51 of C. albicans) (Candida albicans, UniProt P10613)
T1 construct: gene ERG11; commercial recombinant protein from Sangon Biotech (Shanghai)
Experiment: biolayer interferometry (BLI), protein immobilised on APS sensor
Type: binding
Source text: biolayer interferometry (BLI), protein immobilised on APS sensor on CYP51Ca (recombinant protein CYP51 of C. albicans) | berberine binds to CYP51Ca in a dose-dependent manner, with a dissociation constant (KD)

T1 sequence (P10613 whole entry): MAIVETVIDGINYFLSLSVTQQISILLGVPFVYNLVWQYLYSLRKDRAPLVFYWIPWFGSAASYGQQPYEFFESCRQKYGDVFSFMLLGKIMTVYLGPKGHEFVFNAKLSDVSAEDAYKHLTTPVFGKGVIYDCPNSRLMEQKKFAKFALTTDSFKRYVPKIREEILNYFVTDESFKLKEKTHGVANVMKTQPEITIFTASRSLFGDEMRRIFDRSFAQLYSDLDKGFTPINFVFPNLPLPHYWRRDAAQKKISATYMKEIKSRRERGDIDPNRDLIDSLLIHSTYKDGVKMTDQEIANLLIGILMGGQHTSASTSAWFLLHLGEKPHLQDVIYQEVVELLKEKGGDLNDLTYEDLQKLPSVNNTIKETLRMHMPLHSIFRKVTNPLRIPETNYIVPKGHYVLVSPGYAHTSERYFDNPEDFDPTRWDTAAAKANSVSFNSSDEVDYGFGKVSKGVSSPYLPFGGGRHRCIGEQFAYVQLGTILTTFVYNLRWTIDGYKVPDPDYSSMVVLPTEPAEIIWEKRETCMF

In the case of `COc1ccc2cc3[n+](cc2c1OC)CCc1cc2c(cc1-3)OCO2` [berberine], the Kd is reported as < 1 pM.
